Experimental data reported in a melting point compilation (Tetko et al.; mined from patent text by program, amines drawn as free bases though some values may be those of a salt).

SMILES	melting point
CCOc1ccc(-c2ccc3c(c2)C=C(C(=O)Nc2ccc(CN(C)C4CCOCC4)cc2)CCN3C=O)cc1F	193 to 196 °C
COc1cccc(N(C)CCNC(C)=O)c1	69 to 71 °C
O=c1cccccc1N1CCN(CCO)CC1	85 to 86 °C
O=C(OCc1cccc(Cl)c1)c1ncn2c1[C@@H]1CCCN1C(=O)c1c(Cl)cccc1-2	114 to 116 °C
COc1cccc(OC)c1C(=N)N	170 to 174 °C
CCSCC(=O)N1CCSC1COc1ccc(OC)cc1 (stereo unspecified)	98 to 110 °C
CN1CCN(N(c2ccccc2)c2nc3c(-c4c(F)cccc4F)n[nH]c3s2)CC1	208 to 210 °C
COc1ccc2c(c1)sc1ncc(C=O)n12	168 to 169 °C
CCCCCCCC(=O)NNC(=O)N1Cc2ccccc2Oc2ccc(Cl)cc21	127 to 129 °C
CCOC(=O)c1cn(CC(F)(F)F)c2cc3c(cc2c1=O)OCO3	204 to 206 °C
N=C(Nc1ccc2[nH]cc(-c3ccncc3)c2c1)c1cccs1	183 to 185 °C
Fc1cccc(C2OC3(CCNCC3)N3CCCCC23)c1 (stereo unspecified)	133 to 135 °C
Cc1ccccc1-c1ccc2c(c1)CN(CCNC(=O)C1CCCC1)C(N)=N2	43 to 46 °C
CCN(Cc1csc(C2CCCC2)n1)C(=O)N[C@H](C(=O)N[C@@H](Cc1ccccc1)C[C@H](O)[C@H](Cc1ccccc1)NC(=O)OCc1cncs1)C(C)C	67 to 69 °C
CCC1CCN(C(=O)C(Cc2c[nH]cn2)NC(=O)C2CCC(=O)N2)C1C(N)=O (racemic)	156 to 160 °C
CNc1sccc1C(=O)c1ccccc1F	184 to 186 °C
CN1C(N2CCCCC2)=C2N=c3cc(Cl)ccc3=C2Oc2ccccc21	244 to 245 °C
COC1=C(OC)C(=O)C2=C(CC(CCCCCCCC(=O)O)(C(=O)O)C2)C1=O	119 to 123 °C
CCCCNC(=O)Oc1cccc(NC(=O)C=C(CCC)OC)c1	150 °C
COc1ccc2cc([C@H](C)C(=O)OCC(=O)N(C)CC(=O)NCCO[N+](=O)[O-])ccc2c1	79 to 81 °C
COc1cc(C(=O)N2CCC(N3CCC(Oc4ccc(F)c(F)c4)CC3)C2)ccc1N (stereo unspecified)	138 to 139 °C
COc1cc(OC)c2c(=O)[nH]c(-c3ccc(OCCO)c(OC)c3)nc2c1	246 to 248 °C
Oc1ccccc1Oc1ccc(-c2ccsc2)cc1O	114 to 116 °C
CCOC(=O)c1cn(-c2ccc(F)c(NC(=O)OC(C)(C)C)c2F)c2nc(Cl)c(F)cc2c1=O	128 to 131 °C

SMILES	melting point
CCc1nc2c(cnn2CC)c(NC2CCOCC2)c1CNC(=O)c1cccc(C(=O)NCc2ccc(F)c(-c3cccc(CN4CCCNCC4)c3)c2)c1	145 to 148 °C
CN(C)S(=O)(=O)c1cn(C)c2ccccc2c1=O	225 to 226 °C
CC(C)COc1ccccc1C1=NC(=O)C2=NC=NC2=N1	272 to 273 °C
O=C(O)c1ccc(C(=O)Nc2nnc(-c3cc(Cl)cc(Cl)c3O)s2)nc1	267 °C
Nc1nc2c(s1)CC(N1CCN(c3ccccn3)CC1)CC2 (single isomer, unassigned; (-))	230 to 232 °C
CC(C)n1nc(-c2sc(NC(=O)c3ccc(CNCCO)cc3)nc2-c2ccccc2)ccc1=O	111 to 113 °C
CC(C)(C)c1ccc(CCCCC(O)CC2CCCC2)cc1NC(=O)CC1c2ccccc2Oc2ccccc21 (stereo unspecified)	132 to 133 °C
O=C(O)C(CCCc1cccc2ccccc12)c1ccccc1 (stereo unspecified)	99 to 100 °C
Cc1c(C)n(CCCF)c2c(OCc3ccccc3)nncc12	100 to 101 °C
CCCc1nc2c(N)nc3cc(OCc4cccc(Cl)c4)ccc3c2n1CC(C)C	182 to 183 °C
CCOC(=O)C(=CNc1nc(C)c(C)s1)C(=O)OCC	82 to 83.5 °C
Cc1c(-c2ccccc2)oc2c(S)cccc2c1=O	115 to 118 °C
CC(c1oc2ccccc2c(=O)c1-c1cccc(F)c1)n1nc(-c2cc(O)ccc2Cl)c2c(N)ncnc21 (stereo unspecified)	192 to 195 °C
COC(=O)c1c(C(F)F)nc(C(F)(F)F)c(-n2cccc2)c1C1CCC1	70 to 71 °C
CNc1nc(C)c(-c2ccncc2)s1	155 to 156 °C
CCOC(=O)C1=C(C)Nc2ccnc(OCC)c2C1c1ccccc1C(F)(F)F (stereo unspecified)	91 to 94 °C
CCCOc1c(OC)cc(C(=O)CCC(=O)c2cc(OC)c(OC)c(OC)c2)cc1SC	113 to 114 °C
CC(SSc1ccccc1C(=O)Nc1ccc(S(N)(=O)=O)cc1)C(=O)NCC(=O)O (stereo unspecified)	254 to 256 °C
CN(C)c1ccc(C2OC(C)(C)N=C2c2ccccc2)cc1 (stereo unspecified)	123 °C
NS(=O)(=O)c1ccc(NN=Cc2ccc(F)cc2)cc1	205 to 206 °C
CCOC(=O)C(=Cc1ccc(F)cc1)C(C)=O	80 to 82 °C
CCC(CC)N(O)C(=O)NC(C)(C)c1cccc(C(C)(C)NC(=O)N(O)C(CC)CC)c1	170 to 172 °C
O=C(/C=C/c1ccc(Br)cc1)c1c(F)cccc1F	71 °C
Nc1nccc(-c2c[nH]c3nccc(OC4CCCCC4)c23)n1	> 210 °C

SMILES	melting point
COC(=O)c1cc(Cl)c2nc(C)cn2c1N	188 to 191 °C
CCCCCCC(C(=O)N1CCC[C@H]1C(=O)O)n1cnc2cc(-c3ccccc3-c3nn[nH]n3)ccc21 (stereo partly specified)	145 to 150 °C
CCOC(=O)[C@H]1CC(OS(=O)(=O)c2ccc(C)cc2)CN1S(=O)(=O)c1ccc(C)cc1 (stereo partly specified)	93 °C
Cc1ncc2n1-c1ccc(Cl)cc1C(c1ccccc1F)N(O)C2 (stereo unspecified)	246 to 248 °C
Cc1c(NC(=O)c2ccc(C#CC3(O)CCC3)cc2)ccc2cc(CNCC(C)C)n(C)c12	222 to 223 °C
COC(=O)c1ccc(NC(=O)C(CC2CCCC2)c2ccc(N)cc2)nc1 (stereo unspecified)	65 to 68 °C
COc1cc(C)c(C=CC(C)=CC=CC(C)=CC(=O)OC2C(OC)OC(CO)C(O)C2O)c(C)c1C (stereo unspecified)	197 °C
O=C(Nc1c(C(O)(C(F)(F)F)C(F)(F)F)ccc2ccccc12)c1ccc(C(F)(F)F)cc1	191 to 192 °C
CCCCC(CC)C(=O)Nc1ccc(Oc2ccccc2)c2c(=O)c3ccccc3n(C)c12 (stereo unspecified)	154 to 156 °C
S=C=Nc1ccccc1N1CCCCC1	143 to 145 °C
CC(C#N)c1ccc(Cl)nn1 (stereo unspecified)	65 °C
CCC12CCC3C4CCC(=O)C=C4CCC3C1CCC2OC(O)C(Cl)(Cl)Cl (stereo unspecified)	175 to 176 °C
CC(=O)C1(O)CCC2C3CC(C)C4=CC(=O)CCC4(C)C3(F)CCC21C (stereo unspecified)	232 to 235 °C
CC(=O)N1CCOc2ccc(C3=NNC(=O)CC3C)cc21 (stereo unspecified)	186 °C
O=C1OC2(CC(c3ccccc3C(F)(F)F)=NO2)c2ccccc21 (stereo unspecified)	149 to 150 °C
O=C(N1c2ccccc2C(Br)C(Br)c2ccccc21)C(F)(F)F (stereo unspecified)	186 to 189 °C
Cc1nc2c(c3c1[nH]c1ccccc13)C(=NO)CC(C)C2 (stereo unspecified)	282 to 283 °C
CC(=O)NCCSc1ccnc(CSc2nc3ccccc3[nH]2)c1C	211 to 213 °C
CCCCCCCCCCCCCCCCOC(=O)c1ccc(Cl)c(Nc2cc(=O)n(-c3c(Cl)cc(Cl)cc3Cl)n2C(=O)OCc2ccccc2)c1	128 to 131 °C
S=C=Nc1cc(-c2nc(-c3ccco3)no2)ccc1Cl	131 to 132 °C
CCOC(=O)Cc1ccc(NC(=O)C(COC2CCCCO2)NS(=O)(=O)c2ccc(Cl)c([N+](=O)[O-])c2)cc1 (racemic)	108 to 111 °C
CCOC(=O)CCCNC1N=C(c2ccccc2Cl)c2c(cn(C)c2C)N(C)C1=O (stereo unspecified)	105 to 107 °C
COC(=O)c1ccc(C[C@@H]2COc3ccc(OCc4ccc5ccccc5n4)cc3[C@H]2O)cc1 (relative stereo)	138 to 140 °C
CN(Cc1cc2c(=O)c(C(=O)NCc3ccc(Cl)cc3)cn(C)c2o1)CC(O)c1ccco1 (stereo unspecified)	94 to 101 °C

SMILES	melting point
O=C1N(Cc2cnc(N3CCOCC3)s2)c2ccccc2C12COc1cc3c(cc12)OCO3 (stereo unspecified)	97 to 99 °C
CC(C)OC1=CC=CN2C1=NC(=O)C2(Cc1ccccc1)Cc1ccccc1	247 to 248 °C
Cc1ccc(-c2nc(-c3ccc(C)cc3C)nc(-c3ccc(O)cc3O)n2)c(C)c1	199 to 201 °C
O=C(CSCCN1C(=O)c2ccccc2C1=O)c1ccc(F)cc1	124 to 126 °C
OCCn1cc2c(n1)CN=C(c1ccccc1)c1cc(Cl)ccc1-2	173 to 175 °C
CCC(O)(c1cncc(OCc2ccc3ccccc3c2)c1)c1nccs1 (stereo unspecified)	48 to 50 °C
COC(=O)CC(C(OC)OC)C(C)(C)S(=O)(=O)c1ccc(C)cc1 (stereo unspecified)	110 °C
CCOC(=O)N1CCN(c2ccc(-n3cnn(C(CC)C(=O)c4ccc(Cl)cc4)c3=O)cn2)CC1 (stereo unspecified)	139 °C
CC(C)N1OCCC(=Cc2cc(C(C)(C)C)c(O)c(C(C)(C)C)c2)C1=O	181 to 183 °C
CC1CN(c2ccc(C(=O)C(F)(F)F)cc2)N=C1NC(=O)C(F)(F)F (stereo unspecified)	203 to 204 °C
CS(=O)(=O)c1ccc(/C=C/c2nc3ccccc3n2-c2ccccn2)cc1	152 to 154 °C
CC(C)C(=O)NC1=NN(c2cccc(C(F)(F)F)c2)CC1	167 to 168 °C
CCC1(CCCN2CCN(c3cccc(Cl)c3)CC2)C(=O)Nc2ccc(Cl)cc21 (stereo unspecified)	117 to 119 °C
COc1ccc(C2(C#Cc3cccc(C(=O)O)c3)CCCC(=O)C2)cc1OC1CCCC1 (stereo unspecified)	71 to 73 °C
OC(COc1cccc2c1SCCC2)CN1CCC(c2ccccc2)CC1 (stereo unspecified)	104 °C
CC(OC1(c2ccccc2F)NOc2c(Cl)cccc21)C(=O)O (stereo unspecified)	159 to 161 °C
CCn1cc(C(=O)O)c(=O)c2ccc(N)cc21	304 to 307 °C
O=C(OC1Oc2ccccc2-n2cnc(-c3noc(C4CC4)n3)c21)c1ccccc1 (stereo unspecified)	165 to 167 °C
COn1c(C2CCCCC2)nc2c(N)nc3ccccc3c21	220 to 222 °C
Cc1cc(C)nc(NC(C(=O)O)C(c2ccccc2)c2ccccc2)n1 (stereo unspecified)	172 to 174 °C
Cc1cc(NCc2ccc(-c3ccccc3C#N)cc2)n2nccc2n1	221 to 223 °C
O=[N+]([O-])c1cccnc1NCc1cccs1	100 °C
CC(C)c1cc(C(=O)Nc2ccc(C(=O)O)s2)oc1C(C)C	227 to 228 °C
CC(C)(C)NC(=O)N(C(=O)C1CCC2C3CC=C4C=C(C(=O)O)CCC4(C)C3CCC12C)C(C)(C)C (stereo unspecified)	118 to 120 °C
